According to PMC9000735, “In Vitro Alpha-Glucosidase Inhibitory Activity and the Isolation of Luteolin from the Flower of Gymnanthemum amygdalinum (Delile) Sch. Bip ex Walp” (Molecules, 2022):
Like-named read-outs stand apart in the source and are kept apart here.

Assays:
[1] = target: T1, α-glucosidase (Saccharomyces cerevisiae, UniProt P53341); experiment: biochemical; conditions: for IC50: mean ± SD, n = 3, linear regression
T1 construct: purchased Sigma-Aldrich G5003
Procedure: A specific spray reagent, citroborate (5 g citric acid, 5 g boric acid, and 100 mL ethanol), and 10% (v/v) H2SO4 in a MeOH solution were used to identify flavonoids and other compounds. Additionally, during extraction and separation, the entire solvents were distilled before use, making them of technical grade.
Alpha-glucosidase inhibition was assessed using the adopted method with slight modifications. Phosphate buffer solution (36 μL), a sample solution with different concentrations ([…]), and pNPG substrate with 6 mM concentration (17 μL) were successively added to 96 microplate wells. The incubation of this mixture was performed at 37 °C for 5 min. In each well, 17 μL of alpha-glucosidase solution at 0.2 U/mL was added to obtain a total volume of […], which was followed by incubation at 37 °C for 15 min. Furthermore, the initial reaction was brought to completion by the addition of Na2CO3 solution (100 μL) at 200 mM. […] Percentage inhibition was used to express the inhibitory activity of alpha-glucosidase, while the calculation followed the formula below:
Inhibition percentage (%) = (B1–B2)/B1 × 100%.
B1 = Blank absorbance * − control of blank absorbance **
B2 = Sample absorbance − control of sample absorbance ***
The IC50 was calculated using a linear regression equation (y = a + bx) in which the sample concentration was represented on the x-axis and the percentage inhibition was represented on the y-axis.

[2] = tested on: alpha-glucosidase; parameters: method as in PMID 35215317; conditions: cited from earlier work

T1 sequence (P53341 whole entry): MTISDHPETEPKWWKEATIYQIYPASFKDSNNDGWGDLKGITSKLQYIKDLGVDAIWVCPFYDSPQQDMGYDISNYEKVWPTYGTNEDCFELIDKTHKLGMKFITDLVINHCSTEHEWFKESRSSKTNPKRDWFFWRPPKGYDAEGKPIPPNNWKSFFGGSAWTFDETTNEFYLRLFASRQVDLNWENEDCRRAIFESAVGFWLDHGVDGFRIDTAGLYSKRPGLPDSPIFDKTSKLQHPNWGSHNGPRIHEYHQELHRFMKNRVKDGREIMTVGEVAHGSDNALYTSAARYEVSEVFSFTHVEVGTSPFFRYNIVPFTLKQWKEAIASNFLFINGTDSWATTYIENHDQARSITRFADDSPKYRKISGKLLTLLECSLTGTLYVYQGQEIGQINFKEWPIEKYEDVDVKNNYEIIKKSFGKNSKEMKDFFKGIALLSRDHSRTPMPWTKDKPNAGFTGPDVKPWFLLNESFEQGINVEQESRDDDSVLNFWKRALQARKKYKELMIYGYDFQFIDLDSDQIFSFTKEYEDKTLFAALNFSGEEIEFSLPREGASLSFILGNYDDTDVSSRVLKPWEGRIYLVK

SMILES | IC50 [1] [µM] | inhibition mechanism type [2] | inhibition at 100 µg/mL [1] [%] | inhibition at 200 µg/mL [1] [%] | inhibition at 100 µg/mL ([1]; read-out: Inhibition (in %)) [%] | inhibition at 200 µg/mL ([1]; read-out: Inhibition (in %)) [%]
O=c1cc(-c2ccc(O)c(O)c2)oc2cc(O)cc(O)c12 [Compound 1, 2-(3,4-dihydroxyphenyl)-5,7-dihydroxy-4H-chromen-4-one] | 22.8 | non-competitive | – | – | – | –
COc1c(-c2ccc(O)c(O)c2)oc2cc(O)cc(O)c2c1=O [Compound 2, 2-(3,4-dihydroxyphenyl)-5,7-dihydroxy-3-methoxy-4H-chromen-4-one] | 126 | – | – | – | – | –
C[C@H]1O[C@H](O[C@H]2[C@H](O)[C@@H](O)[C@@H](O[C@H]3[C@H](O)[C@@H](O)C(O)O[C@@H]3CO)O[C@@H]2CO)[C@H](O)[C@@H](O)[C@@H]1N[C@H]1C=C(CO)[C@@H](O)[C@H](O)[C@H]1O (stereo partly shown) [Acarbose, acarbose] | – | – | 42.13 ± 0.12 | 66 ± 1.11 | 43.1 ± 0.92 | 66.8 ± 2.11
